The values that follow come from patent publication US20240246951A1, “COMPOUND HAVING BIOLOGICAL ACTIVITY SUCH AS ANTIVIRAL ACTIVITY” (NATIONAL CENTER FOR GLOBAL HEALTH AND MEDICINE, priority 2021, published 2024).

Where two headings read alike, the source gives them in different places.

The test system of one data set is SARS-CoV-2WK-521. Put plainly: microbe, parasite or virus in culture. The data set is classed as cell-based. The note with it: for times more excellent EC50 value as compared with PF-7321332: ratio of EC50 values; for times more excellent EC99 value as compared with PF-7321332: ratio of EC99 values.
The subject of a further data set is Vero E6 cells. Put plainly: Cytotoxicity test, MTT assay. It is filed as cell-based. Conditions: 3 days. How it is done:
(§1) The cytotoxicity test of the test compounds was conducted using Vero E6 cells. Specifically, Vero E6 cells were inoculated in a 96 well plate to be 1×10^4 cells/well, and cultured under standard culture conditions of 3 days, 37° C., and 5% CO2 together with media supplemented with each test compound of each concentration after serial dilution. Thereafter, the viable cell count of each well was quantified by MTT assay to calculate 50% cytotoxicity concentration (CC50).

The nature of a further data set: in vivo. Conditions: mouse, 2 mg/kg; for half-life: iv; for bioavailability: po, bioavailability (BA).
The nature of data set [1]: Cytotoxicity test, MTT assay. It is filed as cell-based. Conditions: African green monkey, Vero E6 cells. How it is done: as §1
In data set [2] the target is Mpro/3CL protease of SARS-CoV-2 (Severe acute respiratory syndrome coronavirus 2 (2019-nCoV) (SARS-CoV-2), UniProt P0DTD1). Put plainly: Mpro/3CL protease enzyme inhibitory activity, FRET assay kit. The note with it: fluorogenic substrate, 25° C. The data set is classed as biochemical.
Where [3] appears, read: Severe acute respiratory syndrome coronavirus 2, Vero C1008, 72 h, read-out: EC50.
The mark [4] stands for this setting: Severe acute respiratory syndrome coronavirus 2, Vero C1008, 72 h, Vero E6 cells, MOI 0.05, 3 days, read-out: EC50.
The mark [5] stands for this setting: Vero E6 cells, MOI 0.05, 3 days.

A word on the EC99: it is the point of the concentration-response curve where the effect stands at 99%. The term EC50 denotes the concentration needed to bring the measured effect to its halfway point. One may read the CC50 as the concentration giving 50% cytotoxicity. In the data set on SARS-CoV-2WK-521, `CC1(C)[C@@H]2[C@@H](C(=S)N[C@@H](C[C@@H]3CCNC3=O)C(=O)c3nc4c(F)cccc4s3)N(C(=O)[C@H](CC(F)(F)F)NC(=O)C(F)(F)F)C[C@@H]21` [Compound 248s] registered an EC99 of less than 1.0 µM. Also, the EC50 in the data set with SARS-CoV-2WK-521 (read-out: EC50) is less than 300 nM. Also, in the data set on Vero E6 cells, the CC50 is more than 100000 nM.
For `CC(C)(F)[C@H](NC(=O)C(F)(F)F)C(=O)N1C[C@H]2[C@@H]([C@H]1C(=S)N[C@@H](C[C@@H]1CCNC1=O)C(=O)c1nc3c(F)ccc(F)c3s1)C2(C)C` [Compound 251s] the same measures were less than 1.0 µM, less than 300 nM and more than 100000 nM.
For `CC1(C)[C@@H]2[C@@H](C(=S)N[C@@H](C[C@@H]3CCNC3=O)C(=O)c3nc4c(F)cccc4s3)N(C(=O)[C@H](CCC(F)(F)F)NC(=O)C(F)(F)F)C[C@@H]21` [Compound 249s] the same measures were less than 1.0 µM, less than 300 nM and more than 100000 nM.
What is called half-life is the time in which the quantity being followed falls by half. Low values mean rapid decline, high ones slow decline. Turning to `COc1cccc2[nH]c(C(=O)N[C@@H](CC(C)C)C(=O)N[C@@H](C[C@@H]3CCNC3=O)C(=O)c3nc4ccccc4s3)cc12` [Compound 2420, reference compound], in “in vivo”, the half-life is approximately 10 min. The same molecule showed an EC50 with SARS-CoV-2WK-521 (Severe acute respiratory syndrome coronavirus 2, Vero C1008, 72 h) of 2700 to 3200 nM.
One may read the bioavailability as dose-corrected exposure relative to a reference, in per cent. A word on the EC75: it is the point of the concentration-response curve where the effect stands at 75%. In “in vivo”, `CC(C)(C)[C@H](NC(=O)C(F)(F)F)C(=O)N1C[C@H]2[C@@H]([C@H]1C(=O)N[C@@H](C[C@@H]1CCNC1=O)C(=O)c1nc3c(F)cccc3s1)C2(C)C` [Compound 245, (1R,2S,5S)-3-((S)-3,3-dimethyl-2-(2,2,2-trifluoroacetamido)butanoyl)-N-((S)-1-(4-fluorobenzo[d]thiazol-2-yl)-1-oxo-3-((S)-2-oxopyrrolidin-3-yl)propan-2-yl)-6,6-dimethyl-3-azabicyclo[3.1.0]hexane-2-carboxamide] returned a half-life not below 45 min and a bioavailability not below 31%. The bioavailability in the data set “in vivo” (same experiment conducted again, mice, 2 mg/kg P.O. vs I.V., calculated from AUC of FIG. 2) was 47.7%. Further, in the data set on SARS-CoV-2WK-521, the EC75 is 290 nM, the EC99 was 0.95 µM, the “times more excellent EC50 value as compared with PF-7321332” value is on record as not below 20 times and the “times more excellent EC99 value as compared with PF-7321332” value was “about 10 times”. Besides, the EC50 in the data set with SARS-CoV-2WK-521 (setting [3]) is 80 nM. For the same molecule, the “suppression of proliferation of SARS-CoV-2” value in the data set on SARS-CoV-2WK-521 (concentration of 1 μM) is reported as “almost completely suppressed”. The molecule further gave a CC50 at 3 days in data set [1] of more than 100000 nM.
`CC(C)(C)[C@H](NC(=O)C(F)(F)F)C(=O)N1C[C@H]2[C@@H]([C@H]1C(=O)N[C@@H](C[C@@H]1CCNC1=O)C(=O)c1nc3cc(F)ccc3s1)C2(C)C` [Compound 272, (1R,2S,5S)-3-((S)-3,3-dimethyl-2-(2,2,2-trifluoroacetamido)butanoyl)-N-((S)-1-(5-fluorobenzo[d]thiazol-2-yl)-1-oxo-3-((S)-2-oxopyrrolidin-3-yl)propan-2-yl)-6,6-dimethyl-3-azabicyclo[3.1.0]hexane-2-carboxamide] registered a bioavailability in the data set “in vivo” of 99.3%. Besides, the EC50 in the data set on SARS-CoV-2WK-521 (setting [3]) is 8 nM. Also, in data set [1], the CC50 at 3 days was more than 80000 nM.
In the case of `CC1(C)[C@@H]2[C@@H](C(=O)N[C@@H](C[C@@H]3CCNC3=O)C(=O)c3nc4c(F)cccc4s3)N(C(=O)[C@H](CC(F)(F)F)NC(=O)C(F)(F)F)C[C@@H]21` [Compound 248], the EC99 with SARS-CoV-2WK-521 is less than 1.0 µM. For the same molecule, the EC50 in the data set on SARS-CoV-2WK-521 (read-out: EC50) was less than 200 nM. Further, the CC50 in the data set on Vero E6 cells was more than 100000 nM.
In general, IC50 refers to the midpoint of a concentration-inhibition curve. Lower therefore signals greater potency. For the molecule `COc1ccc(F)c2[nH]c(C(=O)N3C[C@H]4[C@@H]([C@H]3C(=O)N[C@@H](C[C@@H]3CCNC3=O)C(=O)c3nc5c(F)cccc5s3)C4(C)C)cc12` [Compound 244, (1R,2S,5S)-3-(7-fluoro-4-methoxy-1H-indole-2-carbonyl)-N-((S)-1-(4-fluorobenzo[d]thiazol-2-yl)-1-oxo-3-((S)-2-oxopyrrolidin-3-yl)propan-2-yl)-6,6-dimethyl-3-azabicyclo[3.1.0]hexane-2-carboxamide], the EC50 with SARS-CoV-2WK-521 (setting [4]) came to 600 nM. In the data set with SARS-CoV-2WK-521 (setting [5]), this molecule returned an EC99 of 0.99 µM. The IC50 in data set [2] is 600 nM. In data set [1], this molecule registered a CC50 at 3 days of more than 100000 nM.
On to `CC1(C)[C@@H]2[C@@H](C(=O)N[C@@H](C[C@@H]3CCNC3=O)C(=O)c3nc4c(F)cccc4s3)N(C(=O)[C@H](CCC(F)(F)F)NC(=O)C(F)(F)F)C[C@@H]21` [Compound 249], for which the EC99 in the data set on SARS-CoV-2WK-521 was less than 1.0 µM. The EC50 in the data set on SARS-CoV-2WK-521 (read-out: EC50) is less than 200 nM. Also, the CC50 in the data set with Vero E6 cells is more than 100000 nM.
In the case of `CC(C)(C)[C@H](NC(=O)C(F)(F)F)C(=O)N1C[C@H]2[C@@H]([C@H]1C(=O)N[C@@H](C[C@@H]1CCNC1=O)C(=O)c1nc3ccc(F)cc3s1)C2(C)C` [Compound 273, (1R,2S,5S)-3-((S)-3,3-dimethyl-2-(2,2,2-trifluoroacetamido)butanoyl)-N-((S)-1-(6-fluorobenzo[d]thiazol-2-yl)-1-oxo-3-((S)-2-oxopyrrolidin-3-yl)propan-2-yl)-6,6-dimethyl-3-azabicyclo[3.1.0]hexane-2-carboxamide], in the data set with SARS-CoV-2WK-521 (setting [3]), the EC50 was found to be 52 nM. In data set [1], this molecule yielded a CC50 at 3 days of more than 80000 nM.
For `CC1(C)[C@@H]2[C@@H](C(=O)N[C@@H](C[C@@H]3CCNC3=O)C(=O)c3nc4c(F)cccc4s3)N(C(=O)c3cc4c(F)ccc(F)c4[nH]3)C[C@@H]21` [Compound 243, (1R,2S,5S)-3-(4,7-difluoro-1H-indole-2-carbonyl)-N-((S)-1-(4-fluorobenzo[d]thiazol-2-yl)-1-oxo-3-((S)-2-oxopyrrolidin-3-yl)propan-2-yl)-6,6-dimethyl-3-azabicyclo[3.1.0]hexane-2-carboxamide], the EC50 in the data set on SARS-CoV-2WK-521 (setting [4]) was found to be 750 nM. The EC99 with SARS-CoV-2WK-521 (setting [5]) was 9.4 µM. This molecule also returned an IC50 in data set [2] of 800 nM. This molecule also had a CC50 at 3 days in data set [1] of more than 100000 nM.
`CC(C)(C)[C@H](NC(=O)C(F)(F)F)C(=O)N1C[C@H]2[C@@H](C1C(=S)N[C@@H](C[C@@H]1CCNC1=O)C(=O)c1nc3c(F)cccc3s1)C2(C)C` (stereo partly drawn) [Compound 245s, 2,2,2-trifluoro-N-((S)-1-((1R,2S,5S)-2-(((S)-1-(4-fluorobenzo[d]thiazol-2-yl)-1-oxo-3-((S)-2-oxopyrrolidin-3-yl)propan-2-yl)carbamothioyl)-6,6-dimethyl-3-azabicyclo[3.1 0.0]hexan-3-yl)-3,3-dimethyl-1-oxobutan-2-yl)acetamide]: in the data set with SARS-CoV-2WK-521 (setting [5]), the EC75 was determined as 550 nM and the EC99 is 0.98 µM. Besides, the “times more excellent EC99 value as compared with PF-7321332” value with SARS-CoV-2WK-521 is “about 10 times”.
In the case of `CC(C)(F)[C@H](NC(=O)C(F)(F)F)C(=O)N1C[C@H]2[C@@H]([C@H]1C(=O)N[C@@H](C[C@@H]1CCNC1=O)C(=O)c1nc3c(F)cccc3s1)C2(C)C` [Compound 250], the EC99 in the data set on SARS-CoV-2WK-521 was less than 1.0 µM. Also, the EC50 in the data set with SARS-CoV-2WK-521 (read-out: EC50) is less than 200 nM. The same molecule came in with a CC50 with Vero E6 cells of more than 100000 nM.
`CC(C)(C)[C@H](NC(=O)C(F)(F)F)C(=O)N1C[C@H]2[C@@H]([C@H]1C(=S)N[C@@H](C[C@@H]1CCNC1=O)C(=O)c1nc3c(F)cccc3s1)C2(C)C` [Compound 245s, 2,2,2-trifluoro-N-((S)-1-((1R,2S,5S)-2-(((S)-1-(4-fluorobenzo[d]thiazol-2-yl)-1-oxo-3-((S)-2-oxopyrrolidin-3-yl)propan-2-yl)carbamothioyl)-6,6-dimethyl-3-azabicyclo[3.1 0.0]hexan-3-yl)-3,3-dimethyl-1-oxobutan-2-yl)acetamide]: in the data set with SARS-CoV-2WK-521 (setting [4]), the EC50 was determined as 310 nM. Also, in the data set with SARS-CoV-2WK-521, the “times more excellent EC50 value as compared with PF-7321332” value was not below 6 times. In data set [2], inhibition was half-maximal at 300 nM (IC50). In data set [1], this molecule had a CC50 at 3 days of more than 100000 nM.
For the molecule `CC(C)(C)[C@H](NC(=O)C(F)(F)F)C(=O)N1C[C@H]2[C@@H]([C@H]1C(=O)N[C@H](C#N)C[C@@H]1CCNC1=O)C2(C)C` [PF-7321332, reference compound], the EC50 in the data set with SARS-CoV-2WK-521 (setting [4]) was determined as 1900 nM. In the data set on SARS-CoV-2WK-521 (setting [5]), this molecule returned an EC75 of 4390 nM and an EC99 of 9.68 µM. For the same molecule, the CC50 at 3 days in data set [1] was more than 100000 nM.
`CC(C)(F)[C@H](NC(=O)C(F)(F)F)C(=O)N1C[C@H]2[C@@H]([C@H]1C(=O)N[C@@H](C[C@@H]1CCNC1=O)C(=O)c1nc3c(F)ccc(F)c3s1)C2(C)C` [Compound 251] came in with an EC99 with SARS-CoV-2WK-521 of less than 1.0 µM. Moreover, in the data set with SARS-CoV-2WK-521 (read-out: EC50), the EC50 was less than 200 nM. For the same molecule, in the data set on Vero E6 cells, the CC50 was more than 100000 nM.
For the molecule `CC(C)(C)[C@H](NC(=O)C(F)(F)F)C(=O)N1C[C@H]2[C@@H]([C@H]1C(=S)N[C@@H](C[C@@H]1CCNC1=O)C(=O)c1nc3c(F)ccc(F)c3s1)C2(C)C` [Compound 247s], the EC99 in the data set on SARS-CoV-2WK-521 is less than 1.0 µM. In addition, the EC50 in the data set on SARS-CoV-2WK-521 (read-out: EC50) was less than 300 nM. The molecule also displayed a CC50 with Vero E6 cells of more than 100000 nM.
The like results for `CC(C)(C)[C@H](NC(=O)C(F)(F)F)C(=O)N1C[C@H]2[C@@H]([C@H]1C(=O)N[C@@H](C[C@@H]1CCNC1=O)C(=O)c1nc3c(F)ccc(F)c3s1)C2(C)C` [Compound 247] were, in that order, less than 1.0 µM, less than 200 nM and more than 100000 nM.
For `CC(C)(F)[C@H](NC(=O)C(F)(F)F)C(=O)N1C[C@H]2[C@@H]([C@H]1C(=S)N[C@@H](C[C@@H]1CCNC1=O)C(=O)c1nc3c(F)cccc3s1)C2(C)C` [Compound 250s] the same measures were less than 1.0 µM, less than 300 nM and more than 100000 nM.
